target: EBI2 (Homo sapiens, UniProt P32249); assay: Cell-based luminescent assay (EBI2 modulation); settings: cell-based luminescence; 7a,25-OHC final assay concentration 80 nM; 60 minutes incubation; read-out: IC50
Outline: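 Cells plated overnight at 37° C, then exposed to compound at 4-5 uM final with 80 nM 7a,25-OHC agonist for 60 min at 37° C. Luminescence read after 60 min detection at 25° C in the dark; values normalized to neutral and stimulator controls and plate-pattern corrected.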

EBI2, sequence (P32249 whole entry): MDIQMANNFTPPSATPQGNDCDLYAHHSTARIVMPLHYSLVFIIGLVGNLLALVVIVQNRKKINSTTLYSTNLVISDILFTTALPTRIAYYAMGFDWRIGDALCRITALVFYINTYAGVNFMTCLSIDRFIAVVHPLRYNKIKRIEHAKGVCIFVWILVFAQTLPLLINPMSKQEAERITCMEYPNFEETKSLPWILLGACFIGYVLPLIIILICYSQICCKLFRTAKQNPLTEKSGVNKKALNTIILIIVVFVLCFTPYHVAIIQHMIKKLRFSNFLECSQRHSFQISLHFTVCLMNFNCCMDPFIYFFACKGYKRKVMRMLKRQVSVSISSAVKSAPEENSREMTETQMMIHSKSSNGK

Compound | IC50
O=C(C=Cc1ccc2c(c1)OCO2)N1CCN(C(=O)c2ccc(F)cc2C(F)(F)F)CC1 [Compound C479, 3-(2H-benzo[3,4-d]1,3-dioxolan-5-yl)-1-(4-{[4-fluoro-2-(trifluoromethyl)phenyl]carbonyl}piperazinyl)prop-2-en-1-one] | 100 to 500 nM
O=C(c1cc2ccc(Br)cc2[nH]1)N1CCN(Cc2ccc(F)cc2)CC1 [Compound C293, 6-bromoindol-2-yl 4-[(4-fluorophenyl)methyl]piperazinyl ketone] | 100 to 500 nM
O=C(/C=C/c1ccc(Cl)c(Cl)c1)N1CCN(C(=O)c2ccc(Cl)cc2)CC1 [Compound C23, (2E)-3-(3,4-dichlorophenyl)-1-{4-[(4-chlorophenyl)carbonyl]piperazinyl}prop-2-en-1-one] | < 100 nM
COc1ccc(CN2CCN(C(=O)C#Cc3cccc(Cl)c3)CC2)cc1 [Compound C473, 3-(3-chlorophenyl)-1-{4-[(4-methoxyphenyl)methyl]piperazinyl}prop-2-yn-1-one] | 100 to 500 nM
Cn1c(C(=O)N2CCN(C(c3ccccc3)c3ccccc3)CC2)cc2ccsc21 [Compound C173, 4-(diphenylmethyl)piperazinyl 6-methylthiopheno[3,2-d]pyrrol-5-yl ketone] | 500 to 5000 nM
{1-[(5-chloroindol-2-yl)carbonyl](4-piperidyl)}(4-chlorophenyl) [Compound C462] | 100 to 500 nM
O=C(C=Cc1ccc2c(c1)OCO2)N1CCN(Cc2ccc(F)cc2C(F)(F)F)CC1 [Compound C186, 3-(2H-benzo[3,4-d]1,3-dioxolan-5-yl)-1-(4-{[4-fluoro-2-(trifluoromethyl)phenyl]methyl}piperazinyl)prop-2-en-1-one] | 500 to 5000 nM
O=C(c1cc2cc(F)ccc2[nH]1)N1CCN(C(c2ccccc2)c2ccccc2)CC1 [Compound C126, 4-(diphenylmethyl)piperazinyl 5-fluoroindol-2-yl ketone] | < 100 nM
O=C(c1cc2cc(Cl)ccc2[nH]1)N1CCN(c2ccccc2F)CC1 [Compound C476, 5-chloroindol-2-yl 4-(2-fluorophenyl)piperazinyl ketone] | 100 to 500 nM
Cc1cc2[nH]c(C(=O)N3CCN(C(c4ccccc4)c4ccccc4)CC3)cc2s1 [Compound C228, 4-(diphenylmethyl)piperazinyl 2-methylthiopheno[2,3-d]pyrrol-5-yl ketone] | < 100 nM
(2E)-3-(4-fluorophenyl)-1-[4-(naphthylsulfonyl)piperazinyl]prop-2-en-1-one [Compound C345] | < 100 nM
O=C(c1cc2cc(Cl)ccc2[nH]1)N1CCN(Cc2cccc(-c3ccccc3)c2)CC1 [Compound C403, 5-chloroindol-2-yl 4-[(3-phenylphenyl)methyl]piperazinyl ketone] | < 100 nM
4-{[4-fluoro-2-(trifluoromethyl)phenyl]methyl}piperazinyl 5-(trifluoromethyl)indol-2-yl ketone [Compound C418] | 100 to 500 nM
3-(3,5-difluorophenyl)-1-{4-[(4-methoxyphenyl)carbonyl]piperazinyl}prop-2-yn-1-one [Compound C467] | 100 to 500 nM
(2E)-1-{4-[(3-nitrophenyl)methyl]piperazinyl}-3-phenylprop-2-en-1-one [Compound C387] | < 100 nM
O=C(c1cc2cc(Cl)ccc2[nH]1)N1CCC(Oc2ccccn2)CC1 [Compound C289, 5-chloroindol-2-yl 4-(2-pyridyloxy)piperidyl ketone] | 100 to 500 nM
Cc1ccc(C#CC(=O)N2CCN(Cc3ccc(F)cc3)CC2)cc1 [Compound C122, 1-{4-[(4-fluorophenyl)methyl]piperazinyl}-3-(4-methylphenyl)prop-2-yn-1-one] | < 100 nM

Now from value to compound:

IC50 | Compound
< 100 nM | O=C(c1cc2ccccc2[nH]1)N1CCN(CCc2ccccc2)CC1 [Compound C347, indol-2-yl 4-(phenylethyl)piperazinyl ketone]
< 100 nM | (2E)-3-(4-bromophenyl)-1-[4-({[(4-fluorophenyl)methyl]amino}methyl)piperidyl]prop-2-en-1-one [Compound C47]
< 100 nM | O=C(c1ccc(Br)cc1)N1CCN(C(=O)c2ccc3ccccc3c2)CC1 [Compound C381, 4-bromophenyl 4-(2-naphthylcarbonyl)piperazinyl ketone]
< 100 nM | O=C(C#Cc1ccc(Cl)cc1)N1CCN(Cc2ccc(C(F)(F)F)cc2)CC1 [Compound C356, 3-(4-chlorophenyl)-1-(4-{[4-(trifluoromethyl)phenyl]methyl}piperazinyl)prop-2-yn-1-one]
< 100 nM | O=C(c1cc2c(F)cc(F)cc2[nH]1)N1CCN(C(c2ccccc2)c2ccccc2)CC1 [Compound C263, 4,6-difluoroindol-2-yl 4-(diphenylmethyl)piperazinyl ketone]
< 100 nM | Cc1ccc(C#CC(=O)N2CCN(Cc3ccc(Cl)cc3)CC2)cc1 [Compound C245, 1-{4-[(4-chlorophenyl)methyl]piperazinyl}-3-(4-methylphenyl)prop-2-yn-1-one]
< 100 nM | O=C(/C=C/c1ccc(F)cc1)N1CCN(S(=O)(=O)c2ccccc2F)CC1 [Compound C237, (2E)-3-(4-fluorophenyl)-1-{4-[(2-fluorophenyl)sulfonyl]piperazinyl}prop-2-en-1-one]
< 100 nM | CCCCC(=O)N1CCN(C(=O)/C=C/c2ccc(Br)cc2)CC1 [Compound C98, (2E)-3-(4-bromophenyl)-1-(4-pentanoylpiperazinyl)prop-2-en-1-one]
< 100 nM | O=C(C#Cc1ccccc1)N1CCN(C(=O)c2ccc(Br)cc2)CC1 [Compound C65, 1-{4-[(4-bromophenyl)carbonyl]piperazinyl}-3-phenylprop-2-yn-1-one]
< 100 nM | (2E)-1-{4-[2-(2-fluorophenyl)ethyl]piperazinyl}-3-phenylprop-2-en-1-one [Compound C361]
< 100 nM | O=C(c1ccc(Cl)cc1)N1CCN(C(=O)c2cc3ccc(Cl)cc3[nH]2)CC1 [Compound C255, 6-chloroindol-2-yl 4-[(4-chlorophenyl)carbonyl]piperazinyl ketone]
< 100 nM | O=C(C#Cc1cccc(Cl)c1Cl)N1CCN(C(=O)c2ccc(C(F)(F)F)cc2)CC1 [Compound C132, 3-(2,3-dichlorophenyl)-1-(4-{[4-(trifluoromethyl)phenyl]carbonyl}piperazinyl)prop-2-yn-1-one]
< 100 nM | Cc1ccc2[nH]c(C(=O)N3CCN(Cc4ccc(C(C)(C)C)cc4)CC3)cc2c1 [Compound C244, 4-{[4-(tert-butyl)phenyl]methyl}piperazinyl 5-methylindol-2-yl ketone]
< 100 nM | (2E)-1-[4-({[(3,5-difluorophenyl)methyl]amino}methyl)piperidyl]-3-(4-bromophenyl)prop-2-en-1-one [Compound C54]
< 100 nM | O=C(c1cc2cc(C(F)(F)F)ccc2s1)N1CCN(C(c2ccccc2)c2ccccc2)CC1 [Compound C142, 4-(diphenylmethyl)piperazinyl 5-(trifluoromethyl)benzo[b]thiophen-2-yl ketone]
< 100 nM | O=C(/C=C/c1ccccc1)N1CCN(Cc2ccc(F)cc2)CC1 [Compound C248, (2E)-1-{4-[(4-fluorophenyl)methyl]piperazinyl}-3-phenylprop-2-en-1-one]
< 100 nM | Cc1cc(F)ccc1OC1CCN(C(=O)c2cc3cc(Cl)ccc3[nH]2)CC1 [Compound C357, 5-chloroindol-2-yl 4-(4-fluoro-2-methylphenoxy)piperidyl ketone]

Reference: patent US9776979B2, “EBI2 modulators” (Sanford-Burnham Medical Research Institute, priority 2013, dated 2017)
